Consider seven compounds from EP2264010A1, “Hetarylamidines” (Bayer CropScience AG, priority 2009, dated 2010).

Series [1] is described as follows: logP by HPLC on reversed-phase columns (C 18), EEC Directive 79/831 Annex V.A8. Format: physicochemical. Conditions: c18 reversed-phase hplc, reversed-phase (C 18), read-out: log p. The text has this: Die Messung der logP Werte erfolgte gemäß EEC Directive 79/831 Annex V.A8 durch HPLC (High Performance Liquid Chromatography) an reversed-phase Säulen (C 18), mit der nachfolgenden Methode: […]

For the next series, the system named is ALOMY. In words: Herbicidal activity, test type PE. As to conditions: TEST-TYP PE, 320 G/HA. It is filed as in vivo.
For series [2], the system named is AMARE. Briefly: Herbicidal activity, test type PE. It is filed as in vivo. As to conditions: TEST-TYP PE; for pest or weed control at 320 g/ha: Amaranthus retroflexus, read-out: herbizide Wirkung AMARE.
For another series, the system named is ECHCG. In words: Herbicidal activity, test type PE. Format: in vivo. Conditions: TEST-TYP PE, 320 G/HA.
Another series concerns LOLMU. In words: Herbicidal activity, test type PE. It is filed as in vivo. Conditions: TEST-TYP PE, read-out: herbizide Wirkung LOLMU.
For a further series, the system named is MATIN. Briefly: Herbicidal activity, test type PE. As to conditions: TEST-TYP PE; for pest or weed control at 320 g/ha: read-out: herbizide Wirkung MATIN. It is filed as in vivo.
In another series the test system is SETVI. In words: Herbicidal activity, test type PE. It is filed as in vivo. As to conditions: TEST-TYP PE, read-out: herbizide Wirkung SETVI.
Another series concerns STEME. In words: Herbicidal activity, test type PE. It is filed as in vivo. As to conditions: TEST-TYP PE, read-out: herbizide Wirkung STEME.
Series [3] deals with VERPE. Briefly: Herbicidal activity, test type PE. Format: in vivo. Conditions: TEST-TYP PE, read-out: herbizide Wirkung VERPE.
In series [4] the test system is VIOTR. In words: Herbicidal activity, test type PE. Conditions: TEST-TYP PE; for pest or weed control at 320 g/ha: read-out: herbizide Wirkung VIOTR. Format: in vivo.
The test system of a further series is Tetranychus urticae. Briefly: Tetranychus test, OP-resistant (TETRUR spray treatment). It is filed as in vivo. As to conditions: topical, bean leaf discs (Phaseolus vulgaris), read-out: Wirkung. From the text:
Zur Herstellung einer zweckmäßigen Wirkstoffzubereitung vermischt man 1 Gewichtsteil Wirkstoff mit den angegebenen Mengen Lösungsmittel und Emulgator und verdünnt das Konzentrat mit emulgatorhaltigem Wasser auf die gewünschte Konzentration.
Bohnenblattscheiben (Phaseolus vulgaris), die von allen Stadien der Gemeinen Spinnmilbe (Tetranychus urticae) befallen sind, werden mit einer Wirkstoffzubereitung der gewünschten Konzentration gespritzt.
Nach der gewünschten Zeit wird die Wirkung in % bestimmt. Dabei bedeutet 100 %, dass alle Spinnmilben abgetötet wurden; 0 % bedeutet, dass keine Spinnmilben abgetötet wurden.

Series [5] concerns AMARE. In words: Herbicidal activity, test type PO. Format: in vivo. As to conditions: TEST-TYP PO, 80 G/HA.
Series [6] deals with VERPE. In words: Herbicidal activity, test type PO. It is filed as in vivo. As to conditions: TEST-TYP PO, 80 G/HA.
In series [7] the test system is VIOTR. In words: Herbicidal activity, test type PO. Format: in vivo. As to conditions: TEST-TYP PO, 80 G/HA.
The next series has as its system CYPES. In words: Herbicidal activity, test type PE. It is filed as in vivo. As to conditions: TEST-TYP PE, 320 G/HA.
In another series the test system is PHBPU. Briefly: Herbicidal activity, test type PO. As to conditions: TEST-TYP PO, 80 G/HA. Format: in vivo.

Where only a bound is given, the exact number is not on record here.

`CCN(C)C=Nc1ncc(Cl)cc1-c1ccc(F)c(C(F)(F)F)c1` [compound 14]: the chromatographic logP in series [1] came to 2.21. Further, the “herbizide Wirkung ALOMY” value with ALOMY was 90. In addition, the pest or weed control at 320 g/ha in the series on AMARE [2] was 90%; in the series on LOLMU it was 100%; with MATIN it was 100%; in the series on SETVI, 100%; with STEME, 85%; with VERPE [3] it was 90%. Also, the pest or weed control at 320 g/ha in the series with VIOTR [4] came out at 90%. Besides, the “herbizide Wirkung ECHCG” value with ECHCG is 80.

`CCN(C)C=Nc1ncc(Cl)cc1-c1ccc(C(F)(F)F)c(Cl)c1` [compound 24]: the chromatographic logP in [1] was determined as 2.88. The mortality at 500 g/ha, 500 g/ha in the series on Tetranychus urticae is above 80%.

As for `CCN(C)C=Nc1ncc(Cl)cc1-c1cccc(C(F)(F)F)c1` [compound 33], the mortality at 500 g/ha, 500 g/ha in the series with Tetranychus urticae is above 80%. For the same compound, the “herbizide Wirkung ALOMY” value in the series with ALOMY was found to be 80. The pest or weed control at 320 g/ha with AMARE [2] worked out at 100%; in the series on MATIN it was 80%; with SETVI, 80%; in the series on STEME, 80%; with VERPE [3] it was 100%; in the series with VIOTR [4], 100%. Moreover, the “herbizide Wirkung AMARE” value with AMARE [5] is given as 80. For the same compound, in the series with VERPE [6], the “herbizide Wirkung VERPE” value was 80. For the same compound, the “herbizide Wirkung VIOTR” value in the series with VIOTR [7] turned out to be 90.

As for `CCN(C=Nc1ncc(Cl)cc1-c1cccc(C(F)(F)F)c1)CC` [compound 36], the “herbizide Wirkung CYPES” value in the series on CYPES worked out at 100. Further, the pest or weed control at 320 g/ha with LOLMU was found to be 80%; in the series with SETVI, 90%; in the series on VERPE [3] it was 90%; in the series with VIOTR [4] it was 100%.

For `FC(F)(F)c1cccc(-c2cc(Cl)cnc2N=CN2CCCC2)c1` [compound 38], the pest or weed control at 320 g/ha in the series on AMARE [2] came to 80%; in the series with SETVI it was 90%. The “herbizide Wirkung CYPES” value in the series with CYPES is recorded as 100.

Take `CCN(C)C=Nc1ncc(-c2ccc(F)c(C(F)(F)F)c2)cc1C` [compound 66]: the “herbizide Wirkung ALOMY” value in the series on ALOMY came to 80. Besides, the pest or weed control at 320 g/ha with AMARE [2] was determined as 90%; in the series with LOLMU, 90%; in the series with MATIN, 90%; in the series on SETVI it was 100%; with STEME, 90%; with VERPE [3], 90%. In addition, the pest or weed control at 320 g/ha in the series with VIOTR [4] turned out to be 90%. The “herbizide Wirkung ECHCG” value with ECHCG is listed as 90. The “herbizide Wirkung PHBPU” value in the series with PHBPU was determined as 80. Moreover, the “herbizide Wirkung VIOTR” value with VIOTR [7] was found to be 80.

In the case of `Cc1cc(-c2ccc(F)c(C(F)(F)F)c2)cnc1N=CN(C)C` [compound 181], the “herbizide Wirkung AMARE” value in the series with AMARE [2] (320 G/HA) was 100; in the series with AMARE [5], 80. Further, the “herbizide Wirkung MATIN” value with MATIN (320 G/HA) is 90. For the same compound, the “herbizide Wirkung VIOTR” value in the series on VIOTR [4] (320 G/HA) was found to be 90. The “herbizide Wirkung PHBPU” value in the series with PHBPU is reported as 90. Further, in the series on VERPE [6], the “herbizide Wirkung VERPE” value is 80.
